Experimental data from article PMC7746742, “The novel rexinoid MSU-42011 is effective for the treatment of preclinical Kras-driven lung cancer” (Scientific Reports, 2020).

Legend:
[1] = tested on: A549 lung cancer cells; assay: MTT proliferation assay; assay type: cell-based, human; conditions: 0–1 μM rexinoids, 72 hr
Procedure: were treated with 0-1 μM rexinoids for 72 hr. Proliferation was measured using the MTT assay.
MTT Assay. A549 cells were plated in 96-well plates (2,000 cells/well). After overnight attachment, cells were treated with 2 fold dilutions (0-1000 nM rexinoids) for 72 hr. 50 μL 3-(4,5-dimethylthiazol-2-yl)-2,5-diphenyltetrazolium bromide (MTT; Sigma M2128) was added to each well, and cells were incubated at 37 °C for 4 hr. Media was removed and cells were lysed with developing solution (0.04 M HCl in isopropanol). Plates were read at 550 nm.
(also on this page, place not known: 110A549 Cell Proliferation (% DMSO Control) 37°C)

[2] = Mouse weights as a marker of drug toxicity; assay type: in vivo, A/J mice; conditions: rexinoids in diet; initial week 6, final week 20
Description: Mouse weights were monitored as a marker of drug toxicity (Supplemental Fig. 3). […] There were no significant differences in the average weights between groups of mice on single drugs.
Control Bexarotene 42011 C/P Bex + C/P 42011 + C/P
Initial weight Final weight
Supplemental Fig 3: Mouse weights. A/J mice were weighed weekly during the study. Values shown represent average mouse weights (n = 14-15/group) before treatment diets (initial weight at week 6) and at the end of the study (final weight at week 20). * p < 0.01 compared to control, # p < 0.01 compared to bexarotene, ! p < 0.05 compared to MSU-42011 (one-way ANOVA followed by Tukey HSD); ** p < 0.05, *** p < 0.01 (two-tailed t test).

[3] = Steady state drug levels in plasma after 12 weeks on diet (HPLC-MS); assay type: in vivo, A/J mice; conditions: A/J, mouse, oral, 100 mg/kg diet for 12 weeks, LC-MS, n = 8, mean ± SE
Procedure: Blood was collected via cardiac puncture into 1 ml lithium heparin tubes (Greiner Bio-one). Blood was centrifuged at 5000 g for 5 min at 4 °C. Plasma was separated and frozen at − 80 °C until processed as described. Acetonitrile was added to precipitate plasma proteins. Samples were centrifuged at 14,000 g for 5 min, and the supernatant was filtered with a 0.2 µm syringe filter. Each sample was dried overnight and reconstituted in 200 µl of 50:50 methanol:water solution for analysis via HPLC. HPLC was performed on a Quatro Premier instrument with an Ascentis Express C18 column and an Acquity UPLC system. The mobile phase A consisted of 10 mM aq. ammonium acetate and the mobile phase B consisted of methanol. The following gradient was applied 99–5% A (0–4 min), 5% A (4–5.1 min), 5–99% A (5.1–6 min). The flow rate was 0.3 ml/minute, and bexarotene and MSU-42011 were detected at ~ 4.5 min. A standard curve was prepared by processing plasma from untreated animals and spiking the samples with 0.1–3 μM of the appropriate rexinoid then reconstituting the samples.

[4] = tested on: iNOS; assay: iNOS inhibition assay (LPS-induced NO production, Griess reaction); assay type: cell-based, murine; conditions: Mus musculus; RAW264.7 cells, 0–1000 nM rexinoids, LPS 1 ng/ml 24 h, NO by Griess assay; mean ± SE of 3 experiments; read-out: iNOS suppression IC50
Procedure: To evaluate the anti-inflammatory effects of the novel rexinoids, we utilized the iNOS suppression assay. Inhibition of iNOS in vitro directly correlates with efficacy in our preclinical model of Kras-driven lung cancer. RAW264.7 macrophage-like cells were treated with 0–1 μM rexinoids and stimulated with 1 ng/mL lipopolysaccharide for 24 h, and then NO was measured in the media.
RAW264.7 cells were plated in 96-well plates (20,000 cells/well). After overnight attachment, cells were treated with twofold serial dilutions (0–1000 nM) of rexinoids. After a 20 min incubation at 37 °C, cells were stimulated with 1 ng/mL LPS for 24 h. NO production was measured in culture medium using the Griess reaction. IC50 values were calculated using GraphPad Prism 8.1.2 software for Windows using a log([nM drug concentration]) vs. response curve fit.

[5] = tested on: SREBP; assay: SREBP protein expression in HepG2 cells (western blot); assay type: cell-based, human; conditions: 300 nM rexinoids, 24 h
Procedure: Although we have confirmed that the iNOS assay correlates with in vivo efficacy, few investigators have used the induction of SREBP in vitro as a biomarker to predict the ability of novel rexinoids to increase triglycerides in vivo. Elevated triglycerides are a side-effect found with many RXR agonists in preclinical models and by bexarotene in humans[13],[14]. […] HepG2 human liver cells were used, as the liver is the major organ that regulates lipid homeostasis.
HepG2 were plated in 6-well plates (1 × 10^6 cells/well) and, after allowing the cells to attach overnight, were treated with 300 nM rexinoids and/or varying concentrations of T0901317 (TOCRIS # 2373), GSK 2033 (TOCRIS # 5694), HX 531 (TOCRIS # 3912) for 8 h. Total RNA was isolated with TRIzol (Invitrogen, Carlsbad, CA) and 2 µg RNA was used to synthesize cDNA using the SuperScript III reverse transcriptase kit (Invitrogen, Carlsbad, CA). Primers (IDT) for SREBP (F: 5′-GCCGGTTGATAGGCAGCTT-3′; R: 5′-GGTGAGTGGCGGAACCATT-3′) and GAPDH (F: 5′-[…]-3′; R: 5′-[…]-3′), the SYBR Green Supermix (Bio-rad Laboratories, Hercules, CA) and the QuantStudio 7 Flex Real-Time PCR system (95 °C for 20 s followed by 40 cycles of 95 °C for 15 s and 60 °C for 1 min were used to detect mRNA expression. Relative SREBP/GAPDH gene expression was calculated by the delta-delta Ct method. To evaluate protein expression by western blotting, HepG2 cells were plated as above and treated with 300 nM of rexinoids for 24 h. Cells were harvested and lysed in RIPA buffer (1 M Tris–Cl, 5 M NaCl, pH 7.4, 0.5 M EDTA, 25 mM sodium deoxycholate, 1% triton-X, 0.1% SDS, 0.0125% aprotinin) with protease inhibitors (1% PMSF/0.5% apoprotein/0.1%leupeptin). Protein concentration was measured using a BCA assay (Sigma-Aldrich). Proteins (10 µg/well) were separated in 10% SDS-PAGE gels and transferred to nitrocellulose membranes. Membranes were incubated with SREBP (Active Motif; 1:1000) and GAPDH (Santa Cruz Biotechnology; 1:8000) primary antibodies followed by anti-rabbit secondary antibodies conjugated to horseradish peroxidase (Cell Signaling). Signal was detected using the ECL Western Blotting Substrate (GE Healthcare), and protein levels quantified using ImageJ.

## C=C(c1ccc(C(=O)O)cc1)c1cc2c(cc1C)C(C)(C)CCC2(C)C [Bexarotene]
[1]
  Growth / proliferation of A549 lung cancer cells: do not inhibit proliferation
[2]
  Mouse weights during the study: gained weight as expected
[3]
  concentration at 12 weeks: 81.2 ± 14.9 nM
[4]
  IC50: 143 ± 19 nM
[5]
  SREBP protein levels compared to DMSO control: increased SREBP protein levels
